Laboratory results published in patent US20080249066A1, “ANTIVIRAL COMPOUNDS AND COMPOSITIONS” (ARDEA BIOSCIENCES, INC., priority 2007, published 2008).
Structures can show the parent of a compound that is named as a salt. Where two headings read alike, the source gives them in different places.

Experiments:
Type in all cases: cell-based
[1] = Inhibition of cell growth (GI50) in Diff.CD34+ cells, 7-d; conditions: Diff.CD34+ cells
HIV-1 virus strain JR-FL = test: Inhibition of infection of primary HIV-1 isolate JR-FL in PBMCs (p24 antigen ELISA); conditions: Human immunodeficiency virus 1, 192 h; PBMC infected with virus JR-FL, p24 production at day 8
Description: (§1) Monocyte/macrophages represent a major reservoir of HIV-1 in the infected human host. See L. Epstein et al., AIDS Res. 14, 447 (1984). However, these cells tend to be resistant to dideoxynucleoside prodrugs due to low levels of kinases needed to activate the prodrugs. See C. Pemo et al., J. Exp. Med. 168, 1111 (1984). To test the compounds described herein in these cells, PBMC cells infected for 7 days with two different virus strains (20678 and JR-FL) and under PHA stimulation for 4 days were treated with AZT, FOZ ISO 850, FOZ ISO 851, and FOZ MIX Na.
(§2) PBMC's were prepared as follows: 50 ml of whole human blood was centrifuged at 1000 g for 15 min, supernatant (plasma) removed, and cells resuspended in 80 ml PBS. 20 ml resuspended blood was then layered onto 25 ml Ficoll-Paque Plus (GE Healthcare, Uppsala Sweden), and centrifuged at 400 g for 30 min. The PBMC layer at the interface was collected, washed two times with 20 ml PBS, and resuspended in 20 ml RPMI/10% FBS.
(§3) Day 5-Stimulation of PBMC: PBMCs were grown in 50 ml of stimulation medium (RPMI, 15% FBS, 5 units/ml of IL-2, and 6 ug/ml of PHA) for 5 days.
(§4) Day 1-Infection of PBMC: PBMCs were counted with a hemacytometer. Stimulation medium was removed by centrifugation at RT, 1,500 rpm/5′ and cells resuspended in growth medium (RPMI, 15% of FBS, 10 units/ml of IL-2). PBMCs were infected with JR-FL or 20678 as follows: for one 96-well plate, 20 millions cells were infected with 1 ml of each virus (use 10 ul of virus and 200,000 cell per well) in a 4.5 ml-volume in a 50-ml conical tube. Cells were incubated for 3 hrs at 37 °C. with frequent shaking. Aliqouts of 50 ul of a 4× solution of the compounds to be tested were added to the 96-well plates. After 3 hr of incubation, infected cells were washed two times with PBS and one time with culture medium by spinning down the cells at 1500 rpm for 5 minutes at room temperature. After the last wash cells were resuspended in 15 ml of growth medium. 150 ul of cell suspension were delivered into each well. Cells were incubated for 7 days at 37 °C.
(§5) Day 5-Medium change: Cells were resuspended by pipetting and 100 ul of medium was removed. 100 ul of fresh medium was added with 1× compound. Cells were incubated for 3 more days at 37° C.
(§6) Day 8-p24 assay: At day 8 the p24 production was measured using the HIV-1 p24 Antigen ELISA (Zeptometrix) according to manufacturer instructions.

HIV-1 virus strain 20678 = test: Inhibition of infection of primary HIV-1 isolate 20678 in PBMCs (p24 antigen ELISA); conditions: for EC50: Human immunodeficiency virus 1, 192 h, PBMC infected with virus 20678, p24 production at day 8; for Selectivity Index: GI50 (Diff.CD34+) divided by EC50 (PBMC), values fit AVG GI50 / EC50 of virus 20678
Description: as §1, §2, §3, §4, §5, §6

Diff.CD34+ = test: Inhibition of cell growth (GI50) in Diff.CD34+ cells, 7-d
[2] = 7-d, experiment of Aug. 6, 2007, concentration required for 50% inhibition of cell growth, read-out: GI50 (μM) Aug. 6, 2007 7-d
[3] = 7-d, experiment of Aug. 13 2007, concentration required for 50% inhibition of cell growth, read-out: GI50 (μM Aug. 13 2007 7-d)
[4] = average of the two 7-d experiments, read-out: AVG GI50

EC50 (HIV-1 virus strain JR-FL) [nM]	EC50 (HIV-1 virus strain 20678) [nM]	Compound	GI50 at 7 d [1, 2] [µM]	GI50 at 7 d [1, 3] [µM]	GI50 at 7 d [1, 4] [µM]	Selectivity Index (HIV-1 virus strain 20678)	GI50 (Diff.CD34+; [3]) [µM]	GI50 (Diff.CD34+; [2]) [µM]	GI50 (Diff.CD34+; [4]) [µM]
1140	1410	CCCCCCCCCCCCSC[C@H](COP(=O)(O)OC[C@H]1O[C@@H](n2cc(C)c(=O)[nH]c2=O)C[C@@H]1N=[N+]=[N-])OCCCCCCCCCC (mixture of isomers) [FOZ MIX Na, Phosphoric acid (2S,3S,5R)-3-azido-5-(5-methyl-2,4-dioxo-3,4-dihydro-2H-pyrimidin-1-yl)-tetrahydro-furan-2-ylmethyl ester (S)-2-decyloxy-3-dodecylsulfanyl-propyl ester sodium salt]	1.5	2.2	1.83				
474	279	CCCCCCCCCCCCSCC(COP(=O)(O)OC[C@H]1O[C@@H](n2cc(C)c(=O)[nH]c2=O)C[C@@H]1N=[N+]=[N-])OCCCCCCCCCC (stereo partly drawn) [FOZ ISO 850, Phosphoric Acid (2S,3S,5R)-3-azido-5-(5-methyl-2,4-dioxo-3,4-dihydro-2H-pyrimidin-1-yl)-tetrahydro-furan-2-ylmethyl ester 2-decyloxy-3-dodecylsulfanyl-propyl ester]				11.06	4	2.2	3.09
504	294	CCCCCCCCCCCCSC[C@@H](COP(=O)(O)OC[C@H]1O[C@@H](n2cc(C)c(=O)[nH]c2=O)C[C@@H]1N=[N+]=[N-])OCCCCCCCCCC [FOZ ISO 851, Phosphoric Acid (2S,3S,5R)-3-azido-5-(5-methyl-2,4-dioxo-3,4-dihydro-2H-pyrimidin-1-yl)-tetrahydro-furan-2-ylmethyl ester (R)-2-decyloxy-3-dodecylsulfanyl-propyl ester]				3.5	1.2	0.85	1.03

Further lines, the compound ahead of its results:

Compound	EC50 (HIV-1 virus strain JR-FL) [nM]	EC50 (HIV-1 virus strain 20678) [nM]	GI50 at 7 d [1, 2] [µM]	GI50 at 7 d [1, 3] [µM]	GI50 at 7 d [1, 4] [µM]	Selectivity Index (HIV-1 virus strain 20678)	GI50 (Diff.CD34+; [3]) [µM]	GI50 (Diff.CD34+; [2]) [µM]	GI50 (Diff.CD34+; [4]) [µM]
Cc1cn([C@H]2C[C@H](N=[N+]=[N-])[C@@H](CO)O2)c(=O)[nH]c1=O [AZT, 3′-azido-3′-deoxythymidine, reference compound]	89.8	76	0.07	0.2	0.14	1.8			
CCCCCCCCCCCCSCC(COP(=O)(O)OC[C@H]1O[C@@H](n2cc(C)c(=O)[nH]c2=O)C[C@@H]1N=[N+]=[N-])OCCCCCCCCCC (stereo partly drawn) [FOZ ISO 850 Na, Phosphoric Acid (2S,3S,5R)-3-azido-5-(5-methyl-2,4-dioxo-3,4-dihydro-2H-pyrimidin-1-yl)-tetrahydro-furan-2-ylmethyl ester 2-decyloxy-3-dodecylsulfanyl-propyl ester]			4		4	14.3	> 10		
CCCCCCCCCCCCSC[C@@H](COP(=O)(O)OC[C@H]1O[C@@H](n2cc(C)c(=O)[nH]c2=O)C[C@@H]1N=[N+]=[N-])OCCCCCCCCCC [FOZ ISO 851 Na, Phosphoric Acid (2S,3S,5R)-3-azido-5-(5-methyl-2,4-dioxo-3,4-dihydro-2H-pyrimidin-1-yl)-tetrahydro-furan-2-ylmethyl ester (R)-2-decyloxy-3-dodecylsulfanyl-propyl ester]						4.5	> 10	2.2	2.2
